Results: patent publication US20260055106A1, “PARG INHIBITORY COMPOUND” (FORX THERAPEUTICS AG, priority 2021, published 2026)
Structures can show the parent of a compound that is named as a salt. Where two headings read alike, the source gives them in different places.

Legend:
[1] = tested on: NCI-H460; test: Cellular viability assay (NCI-H460); type: cell-based; settings: 96 hours incubation, Cell Titer-Glo, read-out: EC50 determined in NCIH-460 cells, Cellular viability assay
Description: (§1) NCI-H460 and MDA-MB-436 as PARG-inhibition sensitive cell lines, and U2OS as PARG-inhibition insensitive cell line, were plated at 1000 cells/well, 5000 cells/well and 2000 cells/well, respectively, in 96-well white plates with clear flat bottom. After 24 hours, the compounds were added with the Tecan digital dispenser (D300e), in duplicates. The outer wells of the plate were excluded. After 96 hours of incubation, 150 μl of the growth medium were removed and 50 μl of Cell Titer-Glo (Promega) were added per well. Following an incubation of 10 minutes, luminescence was read using a plate reader (Tecan) for NCI-H460 and U2OS cell lines, and a 2104 EnVision plate reader for MDA-MB-436. Averaged values of the samples were normalized to DMSO treated control samples. Curves were fit as % of the control vs. log of the compound concentration using a 4 parameter log-logistic function: […]

[2] = tested on: U2OS; test: Cellular viability assay (U2OS); type: cell-based; settings: Homo sapiens, 96 hours incubation, Cell Titer-Glo, read-out: EC50 determined in U2OS cells, Cellular viability assay
Description: as §1

[3] = biological target: T1, PARG (Homo sapiens, UniProt Q86W56); test: Cellular PAR chain assay; type: cell-based; settings: U2OS cells
T1 construct: endogenous in cells; host or cells: U2OS
Description: The ability of compounds to inhibit PARG in response to DNA damage, was assessed with U2OS cells pretreated with the compounds for 1 hour, following a 1-hour treatment with or without the DNA alkylating agent temozolomide (TMZ). […] The cells were incubated for 2 hours at room temperature with a mouse monoclonal antibody against poly (ADP) ribose (PAR) polymer. The cells were washed and incubated with an anti-mouse Alexa-488 conjugated secondary antibody for 1 hour at room temperature. Propidium iodide staining was used to determine DNA content in the cells (staining at 4° C. overnight). The fluorescence intensity of the cells was assessed by flow cytometry (Cytoflex from Beckmann) and the percentage of PAR chain positive cells (gated in relation to TMZ+DMSO treated control) was determined. PAR chain positive cells % were fit against the concentration of the compound using a 4 parameter log-logistic function, generating PAR chain EC50 values: […]

[4] = Kinetic solubility assay; type: physicochemical; settings: buffer, aqueous buffer, kinetic from dmso stock, pH 7.4, shake flask, room temperature, HPLC-UV
Description: The Kinetic solubility assay employs the shake flask method followed by HPLC-UV analysis. For exemplary compounds, the kinetic solubility was measured according to the following protocol: • 1. Samples were weighed and dissolved in 100% DMSO to make a stock solution of 10 mM. About 100 μL of stock solution is needed to cover this assay. • 2. Test compounds and controls (10 mM in DMSO, 10 μL/tube) were added into the buffer (490 μL/well) which were placed in a Mini-UniPrep filter. The buffer was prepared as the customer's requirement. • 3. The kinetic solubility samples were vortexed for 2 minutes. • 4. The solubility solutions were shaked in an orbital shaker for 24 hr at room temperature. • 5. 200 μL of each solubility solution were transferd into a 96-deep well for analysis when the samples were directly filtered by the syringeless filter device. • 6. The test compound concentration of the filtrate were determined using HPLC-UV. • 7. Three UV standard solutions were injected into HPLC from low to high concentrations, followed by testing of the K.S. supernatant. Testing samples were injected in duplicate.

[5] = biological target: T2, human PARG (Homo sapiens, UniProt Q86W56, A967T/C963S/D927K/H446G/I916T/L447S/L473S/M841I/N479S/R811K/S802A/S858P/T924D); test: PARG enzymatic IC50 assay; type: biochemical; settings: 2 hours incubation with enzyme; substrate ADP-ribose-pNP; absorbance 405 nm; read-out: IC50 determined in PARG enzymatic assay (PARG protein and 2 hours incubation)
T2 construct: human PARG (448-976 [H446G, L447S, L473S, N479S, S802A, R811K, M8411, S858P, 1916T, T924D, D927K, C963S, A967T]); 6His-TwinStrep (protease-cleavable) (N, cleaved yes); host or cells: E. coli BL21 (DE3)
Description: A codon optimized gene encoding human PARG (448-976 [H446G, L447S, L473S, N479S, S802A, R811K, M8411, S858P, 1916T, T924D, D927K, C963S, A967T]) was synthesized by Genscript, and cloned into pET15b (NcoI/BamHI) with an N-terminal, Thrombin protease cleavable 6His-TwinStrep tag. Expression of the protein in E. coli BL21 (DE3) was induced by addition of 0.2 mM IPTG to a shake flask culture grown to OD600=0.8 at 37° C. Growth was allowed to continue at 30° C. for a further 20 hours before harvesting by centrifugation and storage of the cell pellet at −80° C. […]
PARG enzyme as incubated with compound or vehicle (DMSO) for 15 minutes or 2 hours in a 384 well plate. After adding the PARG substrate ADP-ribose-pNP, the plate was read for absorbance intensity at 405 nm. The vehicle (DMSO) with high absorbance intensity represents no inhibition of enzymatic reaction while the low control (no enzyme) with low absorbance intensity represents full inhibition of enzymatic reaction. […]
The protocol that was used for enzyme reaction and detection is as follows: • 1. […] Read the plate on a plate reader (e.g., Spark Tecan).

[6] = tested on: MDA-MB-436; test: Cellular viability assay (MDA-MB-436); type: cell-based; settings: Homo sapiens, 96 hours incubation, Cell Titer-Glo, read-out: EC50 determined in MDA-MB-436 cells, Cellular viability assay
Description: as §1

[7] = tested on: MDA-MB-436 tumor cells; test: Cell-derived xenograft (CDX) study, MDA-MB-436 xenograft model; type: in vivo, Mus musculus; settings: BALB/c nude mice
Description: • Species: Mus musculus • Strain: BALB/c nude • Age: 6-9 weeks • Sex: Female • Body weight: 17-20 g • Animal supplier: Beijing Vital River Laboratory Animal Technology Co., Ltd • Certificate No: 20230209Abzz0619000498
The MDA-MB-436 tumor cells (ATCC, cat #HTB-130) were maintained in vitro as a monolayer culture in L-15 medium supplemented with 10% fetal bovine serum, 10 μg/mL Insulin, 16 μg/mL glutathione and 1% Antibiotic-Antimycotic at 37° C. in an atmosphere of 0% CO2 in air. The cells growing in an exponential growth phase were harvested and counted for tumor inoculation.
BALB/c nude female mice were inoculated subcutaneously at the right flank with MDA-MB-436 tumor cells (10×10^6/mouse) in 0.2 mL of PBS with Matrigel (1:1) for tumor development. The animals were randomized and the treatment was started on day 25 after tumor inoculation when the average tumor volume reached approximately 126 mm^3. Each group consisted of 10 tumor-bearing mice. The compound of formula (I) was administrated to the mice according to the predetermined regimen as shown in the experimental design table 3
Tumor sizes were measured twice weekly in two dimensions using a caliper, and the volumes were expressed in mm^3. The tumor sizes were then used for the calculations of TGI values.
TGI was calculated for each group using the formula: TGI (%)=[1−(Ti−T0)/(Vi−V0)]×100; Ti is the average tumor volume of a treatment group on a given day, T0 is the average tumor volume of the treatment group on the first day of treatment, Vi is the average tumor volume of the vehicle control group on the same day with Ti, and V0 is the average tumor volume of the vehicle group on the first day of treatment.
A one-way ANOVA was performed to compare the tumor volume among groups.

T1 sequence (Q86W56 whole entry): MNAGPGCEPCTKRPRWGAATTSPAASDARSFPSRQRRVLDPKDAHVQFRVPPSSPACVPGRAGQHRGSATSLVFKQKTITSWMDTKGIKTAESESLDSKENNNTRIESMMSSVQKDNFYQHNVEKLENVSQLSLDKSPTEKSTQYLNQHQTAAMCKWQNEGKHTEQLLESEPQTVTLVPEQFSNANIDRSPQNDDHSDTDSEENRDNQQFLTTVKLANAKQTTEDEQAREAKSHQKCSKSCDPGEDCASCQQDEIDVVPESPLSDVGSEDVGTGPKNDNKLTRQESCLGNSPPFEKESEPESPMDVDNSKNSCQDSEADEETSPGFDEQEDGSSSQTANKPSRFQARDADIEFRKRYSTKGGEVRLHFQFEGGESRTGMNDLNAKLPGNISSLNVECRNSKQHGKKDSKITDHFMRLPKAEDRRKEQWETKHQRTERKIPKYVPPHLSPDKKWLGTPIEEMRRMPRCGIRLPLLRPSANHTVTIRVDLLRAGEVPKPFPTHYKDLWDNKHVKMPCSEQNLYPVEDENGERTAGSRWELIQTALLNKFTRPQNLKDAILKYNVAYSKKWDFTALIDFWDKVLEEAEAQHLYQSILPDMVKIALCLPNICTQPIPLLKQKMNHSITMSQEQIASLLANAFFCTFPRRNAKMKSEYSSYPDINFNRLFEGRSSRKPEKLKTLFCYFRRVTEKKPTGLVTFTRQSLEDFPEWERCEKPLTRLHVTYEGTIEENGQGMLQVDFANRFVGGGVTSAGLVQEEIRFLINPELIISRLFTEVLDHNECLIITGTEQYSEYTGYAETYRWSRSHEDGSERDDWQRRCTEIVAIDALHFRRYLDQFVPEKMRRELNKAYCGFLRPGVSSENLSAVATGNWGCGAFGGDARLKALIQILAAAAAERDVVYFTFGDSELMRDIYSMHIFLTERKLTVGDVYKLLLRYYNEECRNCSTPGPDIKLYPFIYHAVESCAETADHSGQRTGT
T2 sequence (Q86W56 446-976 H446G/L447S/L473S/N479S/S802A/R811K/M841I/S858P/I916T/T924D/D927K/C963S/A967T): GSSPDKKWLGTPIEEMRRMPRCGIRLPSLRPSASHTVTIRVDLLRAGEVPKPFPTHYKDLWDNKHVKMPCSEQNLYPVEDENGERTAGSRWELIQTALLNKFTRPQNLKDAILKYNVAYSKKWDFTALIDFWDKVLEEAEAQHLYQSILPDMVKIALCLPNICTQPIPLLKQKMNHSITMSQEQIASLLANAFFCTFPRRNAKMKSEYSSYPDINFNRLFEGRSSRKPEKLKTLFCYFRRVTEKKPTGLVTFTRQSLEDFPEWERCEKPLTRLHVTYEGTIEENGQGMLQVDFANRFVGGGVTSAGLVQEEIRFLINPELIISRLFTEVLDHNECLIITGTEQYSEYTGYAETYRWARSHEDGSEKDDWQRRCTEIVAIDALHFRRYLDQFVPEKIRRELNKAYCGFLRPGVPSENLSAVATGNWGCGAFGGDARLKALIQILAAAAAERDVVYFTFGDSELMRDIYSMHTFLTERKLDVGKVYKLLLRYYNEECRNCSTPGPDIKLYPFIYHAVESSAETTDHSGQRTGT

Compound | EC50 ([1]; listed as 1b fraction B) [µM] | EC50 ([1]; Homo sapiens, NCI-H460, 96 h) [µM] | EC50 [2] [µM] | EC50 ([3]; with treatment of TMZ, read-out: EC50 determined in Cellular PAR chain assay (conditions with treatment of TMZ)) [µM] | EC50 ([3]; without treatment of TMZ, read-out: EC50 determined in Cellular PAR chain assay (conditions without treatment of TMZ)) [µM] | solubility kinetic at 24 h [4] [µM] | IC50 [5] [µM] | EC50 [6] [µM] | Tumor volume on day 28 ([7]; 100 mg/kg PO QD x 28 days, Mean ± SEM) [mm^3] | TGI ([7]; 100 mg/kg PO QD x 28 days, day 28) [%] | anti-tumor response ([7]; 100 mg/kg, MDA-MB-436 xenograft)
C[C@H]1CN(c2cc(S(=O)(=O)NC3(C)CC3)cn3c(-c4nnc(C(F)F)s4)ncc23)C[C@H](C)N1 (single isomer, unassigned) [Example 1b] | 0.022 | 0.021 | > 2 | – | – | – | – | – | – | – | –
C[C@H]1CN(c2cc(S(=O)(=O)NC3(C)CC3)cn3c(-c4nnc(C(F)F)s4)ncc23)C[C@H](C)N1 [Example 1, 3-(5-(difluoromethyl)-1,3,4-thiadiazol-2-yl)-8-((3S,5S)-3,5-dimethylpiperazin-1-yl)-N-(1-methylcyclopropyl)imidazo[1,5-a]pyridine-6-sulfonamide formate] | – | < 0.019 | 11.9 | < 0.003 | < 0.003 | 152 | 0.011 | 0.017 | 27 ± 9 | 118.20 | tumor regression seen in all mice
